Source: article PMC5743070 (The Journal of Biological Chemistry, 2017)

How the values were obtained:
TTD–PHD (UHRF1_126–366) [1] = target: T1, TTD–PHD (UHRF1_126–366) (Homo sapiens, UniProt Q96T88); assay: (1H-15N) TROSY NMR titration of TTD–PHD; format: binding
T1 construct: His tag (TEV-cleavable) (N); made in house
T1 sequence (Q96T88 126-366): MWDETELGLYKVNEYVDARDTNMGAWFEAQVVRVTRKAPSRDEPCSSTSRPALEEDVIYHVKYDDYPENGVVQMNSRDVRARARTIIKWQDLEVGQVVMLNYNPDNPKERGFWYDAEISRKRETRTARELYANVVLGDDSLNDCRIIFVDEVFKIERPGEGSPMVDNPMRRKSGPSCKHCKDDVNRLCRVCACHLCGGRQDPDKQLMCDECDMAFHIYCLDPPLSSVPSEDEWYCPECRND
Protocol: Exchange broadening is clearly observed for Arg^282, Gly^284, Asp^291, Asn^292, Met^294, and Ser^301 amide resonances at 1:3 protein/BPC ratios, with perturbations also seen with Gly^286 and Gly^299 (Fig. 4 and supplemental Fig. S6).
NMR samples were buffered in 20 mM sodium phosphate (pH 7.5), 150 mM NaCl, 5 mM DTT, 5 mM β-mercaptoethanol, 2 mM TCEP, and 10 μM ZnSO4. The protein concentration was between 200 and 300 μM for all samples. The data were collected at 25 °C on Bruker spectrometers equipped with cryoprobes and operating at 500, 600, or 800 MHz. The assignment of backbone TTD–PHD resonances was accomplished using the ABACUS method ([29]) for which standard backbone and ^15N-edited NOESY spectra were collected using ^15N/^13C/^2H- or ^15N/^13C-labeled protein. All 3D experiments were acquired using non-uniform sampling and processed using the software MDDGUI ([30]) or qMDD ([31]). ^15N-Labeled TTD–PHD was used to acquire ^15N T1 and T2 relaxation and ^1H-^15N heteronuclear NOE measurements ([32]) collected using standard Bruker pulse schemes in an interleaved manner. For T1 measurements, the variable delay was set to 0.1, 0.4, 0.8, 1.5, 2.0, 2.5, 3.5, and 5 s. For T2 measurements, the variable delay was set to 16, 32, 48, 64, 80, 96, 128, and 144 ms. The D1 was 3 s for all experiments. Reported values were the average from two measurements. All spectra were processed using NMRPipe ([33]) and analyzed with SPARKY ([34]).

TTD–PHD (UHRF1_126–366) [2] = target: T1, TTD–PHD (UHRF1_126–366); assay: ITC of H3 peptide binding to TTD–PHD
Protocol: A preliminary peptide injection of 0.06 μl was followed by subsequent 2-μl injections into the sample cell containing 167 μl of 50 μM TTD–PHD. Where indicated, 1.5 mM BPC or 1.5 mM PBR peptide was included in the injection syringe and sample cell. The reported KD and n values are based on the average from two measurements. For ITC measurements of TTD (UHRF1_121–286) interaction with BPC, the protein was buffered in 20 mM Tris (pH 7.4), 50 mM NaCl, and 5% DMSO. BPC was brought to a concentration of 2.5 mM and injected into the sample cell containing 40 μM protein. The data were acquired on a Nano ITC from TA Instruments at 25 °C and fitted with an independent-binding site model using NanoAnalyze software (v3.7.0).
ITC curves showing TTD-PHD binding to methylated (red) and unmethylated (black) H3 peptide.
(1 picture or pasted object on this page, not shown here)

## N=C(N)N1CCC(Cc2ccccc2)CC1 [BPC, 4-benzylpiperidine-1-carboximidamide]
TTD–PHD (UHRF1_126–366) [1]; (1H-15N) TROSY, ~250 μM protein/750 μM ligand
  effect on linker resonances of TTD–PHD: significant conformational broadening and/or movement of amide peaks
TTD–PHD (UHRF1_126–366) [1]; Fig. 4
  effect on TTD–PHD conformation: promote open TTD–PHD conformations
TTD–PHD (UHRF1_126–366) [2]; 1.5 mM BPC (4% DMSO) or 1.5 mM PBR peptide, H3K9me3(1–15)
  effect on TTD–PHD binding affinity for the histone peptide: reduces the TTD–PHD binding affinity for the histone peptide
TTD–PHD (UHRF1_126–366) [2]; 1.5 mM BPC or PBR peptide in syringe and cell, vs apo TTD–PHD
  increase of KD for H3K9me3 (effect of added ligand): ~5 fold
